Results taken from publication PMC9482650, “Quantitative fragmentomics allow affinity mapping of interactomes” (Nature Communications, 2022).
Ends that are not written are not given here. * marks the point of attachment. Biotin = O=C1N[C@H]2[C@H](CS[C@H]2CCCCC(=O)*)N1; ttds = NCCCOCCOCCOCCCNC(=O)CCC(=O)*

Columns and labels:
Format in all cases: binding, human
PDZ-proteins = assay: Estimated PPI affinity, additive association constants of all PDZ sites;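 also: calculated estimate, not directly measured: domain-motif affinities from holdup assays, association constants summed over all PDZ sites, one motif bound at a time, weak interactions ignored, giving a lower limit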
From the text: We used the previously generated domain-motif interactome, consisting of the composite affinities (i.e., taken from the most reliable holdup method; see above) to estimate affinities of PPIs. We assumed that a multidomain PDZ-protein can only interact with a single PBM at the same time (Eq. (4)):4 PDZ+PBM⇌(PDZ−PBM)site1,or(PDZ−PBM)site2,or(PDZ−PBM)siten
Using this approximation, as proposed by others before[45], the association constant of a multi-site interaction is the sum of the association constants of all sites (Eq. (5)):5 Ka,additive=[PDZ−PBM]site1+[PDZ−PBM]site2+…+[PDZ−PBM]siten/[PDZ]×[PBM]=∑Ka,site
The contribution of unmeasurable weak interactions was also neglected in the calculations.

HaCat cell extract preys = assay: PBM-AP-MS, PBM peptide baits
Experimental: (§1) HEK293T and HeLa cells were authenticated and found 100% identity to ATCC cat. CRL-3216 and ATCC cat. CCL-2, respectively. Jurkat and HaCat cell lines were not authenticated (original source: ECACC and Deutsches Krebsforschungszentrum DKFZ, respectively). HeLa cells were grown in DMEM (1 g/L glucose, Gibco) medium completed with 5% FCS and 40 μg/mL gentamicin, diluted every 3rd/4th day 1/10. HaCat cells were grown in DMEM (1 g/L glucose, Gibco) medium completed with 10% FCS and 40 μg/mL gentamicin, diluted every 3rd/4th day 1/4. Jurkat cells were grown in RPMI (Gibco) medium completed with 10% FCS and 40 μg/mL gentamicin, diluted every 3rd/4th day 1/12. All cells were kept at 37 °C and 5% CO2. For proteomics analyses cells were seeded on T-175 flasks. After they reached confluency, adherent cells were washed with PBS once and collected by scraping with ice-cold lysis buffer (Hepes-KOH pH 7.5 50 mM, NaCl 150 mM, Triton X-100 1%, complete EDTA-free protease inhibitor cocktail 1×, EDTA 2 mM, TCEP 5 mM, glycerol 10%). Jurkat cells were collected by 1000 g × centrifugation, washed once with PBS, then collected by 1000 g × 5 min centrifugation again and lysed in ice-cold lysis buffer. Lysates were sonicated 4 × 20 s with 1 s long pulses on ice, then incubated rotating at 4 °C for 30 min. Lysates were centrifuged at 12,000 rpm 4 °C for 20 min and supernatant was kept for further analysis. Concentration determination was carried out by standard Bradford method (Bio-Rad Protein Assay Dye Reagent #5000006) using BSA (MP BIomedicals #160069) as control on a Bio-Rad SmartSpec 3000 spectrophotometer instrument.
(§2) For PBM-AP-MS experiments, 30 μl streptavidin resin was mixed with biotin or peptide at 50–60 μM concentration in 6–6.5 resin volume for 60 min to achieve resin saturation. For PDZ-AP-MS experiments, 30 μl streptavidin resin was mixed with biotinylated MBP or MBP-PDZ at 40-50 μM concentration in >1000× resin volume for 60 min to achieve resin saturation. After saturation, resins were washed a single time (ten resin volume, holdup buffer), and were depleted with biotin (1 mM biotin, 5–10 resin volume, 10 min). Finally, resins were washed two times. 0.5 ml 2 mg/ml cell lysate was added to the dry resin (1 mg total input) and were incubated at 4 °C for 2 h. Then, the beads were washed three times with 10 resin volume buffer containing: 50 mM TRIS pH 8.5, 150 mM NaCl, 1% TritonX-100, 10× complete EDTA-free protease inhibitor cocktail, 2 mM EDTA, 1 mM TCEP. Then, the beads were washed two times with ten resin volume buffer containing: 50 mM TRIS pH 8.5, 150 mM NaCl, 1 mM TCEP. Finally, captured protein was eluted from the resin in two steps and the eluted fractions were pooled. For each elution the beads were incubated for 30 min with three resin volume buffer containing: 20 mM TRIS pH8.5, 100 mM NaCl, 500 μM TCEP, 8 M Urea. Between each step, the beads were separated by mild centrifugation and the supernatant was removed by gentle pipetting.
(§3) The samples were precipitated with TCA 20% overnight at 4 °C and centrifuged at 14,000 rpm for 10 min at 4 °C. The protein pellets were washed twice with 1 mL cold acetone and air dried. The protein extracts were solubilized in urea 8 M, reduced with 5 mM TCEP for 30 min, and alkylated with 10 mM iodoacetamide for 30 min in the dark. Double digestion was performed at 37 °C with 500 ng endoproteinase Lys-C for 4 h, followed by fourfold dilution and an overnight digestion with 500 ng trypsin. Peptide mixtures were then desalted on C18 spin-column and dried on Speed-Vacuum.
(§4) Samples were analyzed using an Ultimate 3000 nano-RSLC (Thermo Scientific, San Jose California) coupled in line with a LTQ-Orbitrap ELITE mass spectrometer via a nano-electrospray ionization source (Thermo Scientific, San Jose California). […]

HeLa cell extract preys = assay: PBM-AP-MS, PBM peptide baits
Experimental: as §1, §2, §3, §4

Substance: HPV30E6 ({Biotin-ttds}-RHTTSTETAV)
- final additive pKd (PDZ-proteins; PDZ-protein AHNAK): 3.716
- final additive pKd (PDZ-proteins; PDZ-protein CASK): 3.5
- final additive pKd (PDZ-proteins; PDZ-protein DLG1): 5.729
- final additive pKd (PDZ-proteins; PDZ-protein InaDl): 4.166
- final additive pKd (PDZ-proteins; PDZ-protein LAP2): 4.458
- final additive pKd (PDZ-proteins; PDZ-protein LIN7C): 4.187
- final additive pKd (PDZ-proteins; PDZ-protein LNX2): 3.771
- final additive pKd (PDZ-proteins; PDZ-protein MAGI3): 5.357
- final additive pKd (PDZ-proteins; PDZ-protein MPP5): 3.5
- final additive pKd (PDZ-proteins; PDZ-protein MPP6): 3.5
- final additive pKd (PDZ-proteins; PDZ-protein MPP7): 3.5
- final additive pKd (PDZ-proteins; PDZ-protein NHERF2): 3.5
- final additive pKd (PDZ-proteins; PDZ-protein PDLIM2): 3.5
- final additive pKd (PDZ-proteins; PDZ-protein PDLIM5): 3.5
- final additive pKd (PDZ-proteins; PDZ-protein PDLIM7): 3.5
- final additive pKd (PDZ-proteins; PDZ-protein PSMD9): 3.5
- final additive pKd (PDZ-proteins; PDZ-protein SCRIB): 5.522
- final additive pKd (PDZ-proteins; PDZ-protein SNTB1): 5.102
- final additive pKd (PDZ-proteins; PDZ-protein SNTB2): 4.675
- final additive pKd (PDZ-proteins; PDZ-protein SNX27): 5.636
- final additive pKd (PDZ-proteins; PDZ-protein SYNJ2BP): 5.355
- final additive pKd (PDZ-proteins; PDZ-protein TX1B3): 4.653
- Enrichment values compared to biotin controls (HaCat cell extract preys; prey AHNAK2, PBM peptide bait): 1.2
- Enrichment values compared to biotin controls (HaCat cell extract preys; prey AHNAK, PBM peptide bait): 1.4
- Enrichment values compared to biotin controls (HaCat cell extract preys; prey DLG1, PBM peptide bait): 3.4
- Enrichment values compared to biotin controls (HaCat cell extract preys; prey GORASP2, PBM peptide bait): 0.566
- Enrichment values compared to biotin controls (HaCat cell extract preys; prey InaDl, PBM peptide bait): 0.8
- Enrichment values compared to biotin controls (HaCat cell extract preys; prey LAP2, PBM peptide bait): 1.6
- Enrichment values compared to biotin controls (HaCat cell extract preys; prey LIN7C, PBM peptide bait): 207.8
- Enrichment values compared to biotin controls (HaCat cell extract preys; prey MAGI3, PBM peptide bait): 2.1
- Enrichment values compared to biotin controls (HaCat cell extract preys; prey MPP5, PBM peptide bait): 1.9
- Enrichment values compared to biotin controls (HaCat cell extract preys; prey MPP6, PBM peptide bait): 1.8
- Enrichment values compared to biotin controls (HaCat cell extract preys; prey MPP7, PBM peptide bait): 42.8
- Enrichment values compared to biotin controls (HaCat cell extract preys; prey NHERF2, PBM peptide bait): 1.1
- Enrichment values compared to biotin controls (HaCat cell extract preys; prey NHERF, PBM peptide bait): 2.3
- Enrichment values compared to biotin controls (HaCat cell extract preys; prey PDLIM1, PBM peptide bait): 2.3
- Enrichment values compared to biotin controls (HaCat cell extract preys; prey PDLIM2, PBM peptide bait): 1.2
- Enrichment values compared to biotin controls (HaCat cell extract preys; prey PDLIM4, PBM peptide bait): 1.3
- Enrichment values compared to biotin controls (HaCat cell extract preys; prey PDLIM5, PBM peptide bait): 0.9
- Enrichment values compared to biotin controls (HaCat cell extract preys; prey PDLIM7, PBM peptide bait): 0.658
- Enrichment values compared to biotin controls (HaCat cell extract preys; prey PTPN3, PBM peptide bait): 1.3
- Enrichment values compared to biotin controls (HaCat cell extract preys; prey SCRIB, PBM peptide bait): 0.8
- Enrichment values compared to biotin controls (HaCat cell extract preys; prey SNTB2, PBM peptide bait): 9.0
- Enrichment values compared to biotin controls (HaCat cell extract preys; prey SNX27, PBM peptide bait): 0.9
- Enrichment values compared to biotin controls (HaCat cell extract preys; prey SYNJ2BP, PBM peptide bait): 21.9
- Fold changes HaCat, SYNJ2BP (HaCat cell extract preys; prey SYNJ2BP, PBM peptide bait): 21.9
- Enrichment values compared to biotin controls (HaCat cell extract preys; prey TJP1, PBM peptide bait): 3.8
- Enrichment values compared to biotin controls (HaCat cell extract preys; prey TJP2, PBM peptide bait): 0.9
- Enrichment values compared to biotin controls (HaCat cell extract preys; prey TX1B3, PBM peptide bait): 0.9
- Enrichment values compared to biotin controls (HeLa cell extract preys; prey AHNAK, PBM peptide bait): 1.1
- Enrichment values compared to biotin controls (HeLa cell extract preys; prey CASK, PBM peptide bait): 20.8
- Enrichment values compared to biotin controls (HeLa cell extract preys; prey DLG1, PBM peptide bait): 6.0
- Enrichment values compared to biotin controls (HeLa cell extract preys; prey DLG5, PBM peptide bait): 0.7
- Enrichment values compared to biotin controls (HeLa cell extract preys; prey DVL2, PBM peptide bait): 0.7
- Enrichment values compared to biotin controls (HeLa cell extract preys; prey HTRA1, PBM peptide bait): 1.3
- Enrichment values compared to biotin controls (HeLa cell extract preys; prey InaDl, PBM peptide bait): 0.8
- Enrichment values compared to biotin controls (HeLa cell extract preys; prey LAP2, PBM peptide bait): 1.5
- Enrichment values compared to biotin controls (HeLa cell extract preys; prey LIN7C, PBM peptide bait): 110.0
- Enrichment values compared to biotin controls (HeLa cell extract preys; prey LMO7, PBM peptide bait): 0.8
- Enrichment values compared to biotin controls (HeLa cell extract preys; prey LNX2, PBM peptide bait): 1.0
- Enrichment values compared to biotin controls (HeLa cell extract preys; prey MPDZ, PBM peptide bait): 1.6
- Enrichment values compared to biotin controls (HeLa cell extract preys; prey MPP5, PBM peptide bait): 4.5
- Enrichment values compared to biotin controls (HeLa cell extract preys; prey MPP7, PBM peptide bait): 9.1
- Enrichment values compared to biotin controls (HeLa cell extract preys; prey PDLIM5, PBM peptide bait): 0.9
- Enrichment values compared to biotin controls (HeLa cell extract preys; prey PDLIM7, PBM peptide bait): 0.9
- Enrichment values compared to biotin controls (HeLa cell extract preys; prey PSMD9, PBM peptide bait): 0.7
- Enrichment values compared to biotin controls (HeLa cell extract preys; prey SCRIB, PBM peptide bait): 155.6
- Enrichment values compared to biotin controls (HeLa cell extract preys; prey SDCBP, PBM peptide bait): 1.3
- Enrichment values compared to biotin controls (HeLa cell extract preys; prey SIPA1L1, PBM peptide bait): 0.5
- Enrichment values compared to biotin controls (HeLa cell extract preys; prey SNTB1, PBM peptide bait): 6.5
- Enrichment values compared to biotin controls (HeLa cell extract preys; prey SNTB2, PBM peptide bait): 1.1
- Enrichment values compared to biotin controls (HeLa cell extract preys; prey SNX27, PBM peptide bait): 1.4
- Enrichment values compared to biotin controls (HeLa cell extract preys; prey SYNJ2BP, PBM peptide bait): 15.4
- Fold changes HeLa, SYNJ2BP (HeLa cell extract preys; prey SYNJ2BP, PBM peptide bait): 15.4
- Enrichment values compared to biotin controls (HeLa cell extract preys; prey TJP1, PBM peptide bait): 0.7
